Patent US10913983B2, “Sensitivity markers and uses for CDK7 inhibitors in breast cancers” (UNIVERSITY OF SOUTH CAROLINA, priority 2017, dated 2021)

Columns and labels:
Type in all cases: cell-based
SKBR3 = assay: Cell proliferation MTT assay; conditions: SKBR3, 7 days, read-out: 7 day IC50
Method: (§1) Cells were seeded in 12-well plates at densities ranging from 10000-30000 cells/well and after 24 hours cells were treated with 10, 40 and 100 nM THZ1 in triplicate. After 7 days the cells were imaged using Zeiss Axiovert 200 microscope using a 20× objective lens. Additionally, cells were plated in 96-well plates at a density of 2000 cells/well and after 24 hours treated with 0-10 μM THZ1. After 2 and 7 days the growth of the cells was measured by MTT assay.
(§2) All results were presented as mean±standard deviation of 4-8 parallel assessments. Similar results were obtained from a minimum of two independent experiments. […] Densitometry was performed on duplicate immunoblots using ImageLab software (Biorad) and normalized to tubulin loading controls and then correlated with the THZ1 IC50 values of each cell line. Statistical analyses were performed using SPSS 18.0 (SPSS Inc). Bi-variant scatter graphs and Spearman rank analyses were performed to evaluate associations between protein levels, mRNA and response to inhibition. IC50 values were calculated for MTT assays using CompuSyn software.

T47D = assay: Cell proliferation MTT assay; conditions: 7 days, read-out: 7 day IC50
Method: as §1, §2

JIMT-1 = assay: Cell proliferation MTT assay; conditions: JIMT-1, 7 days, MTT; read-out: 7 day IC50
Method: as §1, §2

MCF7 = assay: Cell proliferation MTT assay; conditions: MCF7, 7 days, read-out: 7 day IC50
Method: as §1, §2

MDA-MB-231 = assay: Cell proliferation MTT assay; conditions: MDA-MB-231, 7 days, read-out: 7 day IC50
Method: as §1, §2

MDA-MB-361 = assay: Cell proliferation MTT assay; conditions: MDA-MB-361, 7 days, read-out: 7 day IC50
Method: as §1, §2

ZR-75-1 = assay: Cell proliferation MTT assay; conditions: ZR-75-1, 7 days, read-out: 7 day IC50
Method: as §1, §2

[1] = system: panel of breast cancer cell lines; assay: Cell proliferation MTT assay, cell line panel; conditions: 7 days
Method: as §1, §2
To investigate the effect of CDK7 inhibition in a time and dose dependent manner, an extended panel of 11 breast cancer cell lines were screened for response to THZ1 after 2 and 7 days of treatment.

CC(C)c1cnn2c(NCc3ccccc3)cc(NCCCCCCN)nc12 [BS-181]
IC50 (SKBR3): 8.9 µM
IC50 (T47D): 8.5 µM
IC50 (JIMT-1): 11.1 µM
IC50 (MCF7): 32.1 µM
IC50 (MDA-MB-231): 39.5 µM
IC50 (MDA-MB-361): 4.9 µM
IC50 (ZR-75-1): 19.6 µM
growth inhibition ([1]; all tested breast cancer cell lines): inhibited the growth of all tested breast cancer cell lines
efficiency of growth inhibition compared with THZ1 ([1]; cell line panel): much less efficient than THZ1
